Results published in patent US10342758B2, “Cationic lipid” (Kyowa Hakko Kirin Co., Ltd., priority 2012, dated 2019).

Tests used:
[1] = Average particle diameter of preparation (Zetasizer Nano ZS); type: physicochemical; settings: preparation with apo-b siRNA; compound/PEG-DMPE Na/DSPC/cholesterol; Example 49 / Comparative Example 1
[2] = as above; type: physicochemical; settings: preparation with f7 siRNA
Experimental: The average particle diameter of each preparation (composition) was measured using a particle diameter measurement device (Zetasizer Nano ZS, manufactured by Malvern, hereafter the same).
The average particle diameter of each preparation (composition) was measured using a particle diameter measurement device.
Each sample was weighed and suspended in an aqueous solution containing hydrochloric acid and ethanol so that the ratio of Compound A-1/PEG-DMPE Na (manufactured by NOF Corporation) was 57.3/5.52 mmol/L, and then, the resulting mixture was repeatedly subjected to stirring using a vortex stirring mixer and heating, whereby a uniform suspension was obtained. This suspension was passed through a 0.2-μm polycarbonate membrane filter and thereafter passed through a 0.05-μm polycarbonate membrane filter at room temperature, whereby a dispersion liquid of particles (liposome) of Compound A-1/PEG-DMPE Na was obtained. The average particle diameter of the obtained liposome was measured using a particle diameter measuring apparatus to confirm that the average particle diameter was within the range from 30 nm to 100 nm. In the obtained dispersion liquid of liposome, the f7 siRNA solution was mixed at a ratio of the dispersion liquid of liposome to the fl siRNA solution of 3:1, and then, distilled water that was three times the amount was added thereto and mixed therewith, whereby a dispersion liquid of Compound A-1/PEG-DMPE Na/f7 siRNA complex was prepared.
The average particle diameter of the preparation (composition) was measured using a particle diameter measurement device.

apo-b gene mRNA = assay: Expression ratio of apo-b mRNA after introduction of preparations into HepG2 cells; type: cell-based, human; settings: nucleic acid 3 to 100 nM, 24 hours, composition with apo-b siRNA (FIG. 1)
Source text: Each of the preparation: obtained in Example 49 (the compositions containing any of Compounds A-1, and A-3 to A-5, and the nucleic acid) and the preparations obtained in Comparative Example 1 (the compositions containing any of DLin-KC2-DMA and Compounds XI-1 to XI-3, and the nucleic acid) was introduced into cells of human liver cancer-derived cell line HepG2 (HB-8065) by the following method.
Each preparation diluted with Opti-MEM (GIBCO Co., Ltd., 31985) so that the final concentration of the nucleic acid was 3 to 100 nM was dispensed in a 96-well culture plate at 20 μL/well. […]
By using the obtained cDNA as a template and also using a universal probe library (Roche Applied Science, Inc., 04683633001) as the probe and ABI7900HT Fast (manufactured by ABI, Inc.), a PCR reaction was performed according to the method described in the protocol attached thereto, so that the apo-b gene and D-glyceraldehyde-3-phosphate dehydrogenase (hereinafter, represented by “gapdh”) gene, which is a constitutively expressed gene, were subjected to the PCR reaction. Then, the amount of the amplified mRNA was measured for each gene, and a quasi-quantitative value of the apo-b mRNA was calculated using the amount of the amplified gapdh mRNA as the internal control. […]

[3] = compound/PEG-DMPE Na/DSPC/cholesterol, Examples 50, 51 / Comparative Example 2
[4] = liposome/siRNA complex encapsulated by lipid membrane, Examples 52, 53 / Comparative Example 3

SMILES: CCCCCC/C=C\CCCCCCCCN(CCCCCCCC/C=C\CCCCCC)C(=O)OCCCN(C)C [Compound A-3, 3-(Dimethylamino)propyl di(Z)-hexadec-9-enyl) carbamate]
- Particle diameter of Preparation obtained [1]: 150.0 nm

SMILES: CCCCC/C=C\C/C=C\CCCCCCCCN(CCOCCCCCCCC/C=C\CCCCCCCC)C(=O)OCCCN(C)C [Compound A-35, 3-(Dimethylamino)propyl (2-((Z)-octadec-9-enyloxy)ethyl)((9Z,12Z)-octadeca-9,12-dienyl)carbamate]
- Particle diameter of Preparation obtained [2, 3]: 137.8 nm
- Particle diameter of Preparation obtained [2, 4]: 115.4 nm

SMILES: CCCCC/C=C\C/C=C\CCCCCCCCN(CCOCCCCCCCC/C=C\CCCCCC)C(=O)OCCCN(C)C [Compound A-36, 3-(Dimethylamino)propyl (2-((Z)-hexadec-9-enyloxy)ethyl)((9Z,12Z)-octadeca-9,12-dienyl)carbamate]
- Particle diameter of Preparation obtained [2, 3]: 126.5 nm
- Particle diameter of Preparation obtained [2, 4]: 127.2 nm

SMILES: CCCCC/C=C\C/C=C\CCCCCCCCNCCCCCCCC/C=C\C/C=C\CCCCC [Compound B-1, Di((9Z,12Z)-octadeca-9,12-dienyl)amine]
- Particle diameter of Preparation obtained [2, 3]: 160.6 nm

SMILES: CCCCC/C=C\C/C=C\CCCCCCCCN(CCCO)CCCCCCCC/C=C\C/C=C\CCCCC [Compound C-1, 3-(Di((9Z,12Z)-octadeca-9,12-dienyl)amino)propan-1-ol]
- Particle diameter of Preparation obtained [2, 3]: 124.3 nm
- Particle diameter of Preparation obtained [2, 4]: 88.3 nm

SMILES: CCCCCCCC/C=C\CCCCCCCCN(CCCO)CCCCCCCC/C=C\CCCCCCCC [Compound C-2, 3-(Di((Z)-octadec-9-enyl)amino)propan-1-ol]
- Particle diameter of Preparation obtained [2, 3]: 125.4 nm
- Particle diameter of Preparation obtained [2, 4]: 91.9 nm

SMILES: CCCCC/C=C\C/C=C\CCCCCCCCCCN(CCCO)CCCCCCCCCC/C=C\C/C=C\CCCCC [Compound C-3, 3-(Di((11Z,14Z)-icosa-11,14-dienyl)amino)propan-1-ol]
- Particle diameter of Preparation obtained [2, 3]: 138.4 nm
- Particle diameter of Preparation obtained [2, 4]: 94.1 nm

SMILES: CCCCC/C=C\C/C=C\CCCCCCCCN(CCO)CCCCCCCC/C=C\C/C=C\CCCCC [Compound C-4, 2-(Di((9Z,12Z)-octadeca-9,12-dienyl)amino)ethanol]
- Particle diameter of Preparation obtained [2, 3]: 137.3 nm
- Particle diameter of Preparation obtained [2, 4]: 98.8 nm

SMILES: CCCCC/C=C\C/C=C\CCCCCCCCN(CCCCO)CCCCCCCC/C=C\C/C=C\CCCCC [Compound C-5, 4-(Di((9Z,12Z)-octadeca-9,12-dienyl)amino)butan-1-ol]
- Particle diameter of Preparation obtained [2, 3]: 134.9 nm
- Particle diameter of Preparation obtained [2, 4]: 96.4 nm

SMILES: CCCCC/C=C\C/C=C\CCCCCCCCN(CCCCCCCC/C=C\C/C=C\CCCCC)C(=O)CCCCN(C)C [Compound XI-2, 5-(Dimethylamino)-N,N-di((9Z,12Z)-octadeca-9,12-dienyl)pentanamide]
- expression of the apo-b gene mRNA (apo-b gene mRNA): did not suppress the expression of the apo-b gene mRNA

SMILES: CCCCC/C=C\C/C=C\CCCCCCCCOCCN(CCOCCCCCCCC/C=C\C/C=C\CCCCC)C(=O)OCCCN(C)C [Compound XI-5, 3-(Dimethylamino)propyl bis(2-((9Z,12Z)-octadeca-9,12-dienyloxy)ethyl)carbamate, reference compound]
- Particle diameter of Preparation obtained [2, 3]: 114.1 nm

SMILES: CCCCC/C=C\C/C=C\CCCCCCCCN(CCCCCCCC/C=C\C/C=C\CCCCC)CC(O)CO (stereo not drawn) [Compound XI-7, 3-(Di((9Z,12Z)-octadeca-9,12-dienyl)amino)propane-1,2-diol, reference compound]
- Particle diameter of Preparation obtained [2, 3]: 142.8 nm

SMILES: CCCCC/C=C\C/C=C\CCCCCCCCO[C@@H]1CN(CCCO)C[C@H]1OCCCCCCCC/C=C\C/C=C\CCCCC [Compound XI-8, 3-((3R,4R)-3,4-Bis((9Z,12Z)-octadeca-9,12-dienyloxy)pyrrolidin-1-yl)propan-1-ol, reference compound]
- Particle diameter of Preparation obtained [2, 3]: 128.0 nm

SMILES: CCCCC/C=C\C/C=C\CCCCCCCCOCC(CN(C)C(=O)OCCCN(C)C)OCCCCCCCC/C=C\C/C=C\CCCCC (stereo not drawn) [Compound XI-9, 3-(Dimethylamino)propyl 2,3-bis((9Z,12Z)-octadeca-9,12-dienyloxy)propyl(methyl)carbamate, reference compound]
- Particle diameter of Preparation obtained [2, 4]: 116.2 nm
